PubChem BioAssay AID248 (DTP/NCI, 2004)
“And” between values parts separate entries of the source, which are not always exact repeats. Equal values may be shown once. Inconclusive results and toxic doses are left out.

System: L1210 leukemia ip in BDF1 mice, survival T/C
Test: NCI In Vivo Anticancer Drug Screen. Data for tumor model L1210 Leukemia (intraperitoneal) in B6D2F1 (BDF1) mice
Settings: endpoint: mean survival time, higher = longer survival
Outline: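 In this screen, tumor-bearing mice given compound are compared to those given vehicle, and their survival values are reported as a treated-to-control quotient.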

[1] = dose: 12.5 mg/kg/injection, schedule: Q04DX003 (ip), vehicle: Klucel (hydroxypropylcellulose) (HPC)
[2] = dose: 50.0 mg/kg/injection, schedule: Q01DX001 (ip), vehicle: saline
[3] = dose: 100.0 mg/kg/injection, schedule: Q01DX001 (ip), vehicle: saline
[4] = dose: 200.0 mg/kg/injection, schedule: Q01DX001 (ip), vehicle: saline
[5] = dose: 400.0 mg/kg/injection, schedule: Q01DX001 (ip), vehicle: saline
[6] = dose: 50.0 mg/kg/injection, schedule: Q01DX009 (ip), vehicle: Klucel (hydroxypropylcellulose) (HPC)
[7] = dose: 50.0 mg/kg/injection, schedule: Q01DX001 (ip), vehicle: carboxymethylcellulose (CMC)
[8] = dose: 100.0 mg/kg/injection, schedule: Q01DX001 (ip), vehicle: carboxymethylcellulose (CMC)
[9] = dose: 200.0 mg/kg/injection, schedule: Q01DX001 (ip), vehicle: carboxymethylcellulose (CMC)
[10] = dose: 400.0 mg/kg/injection, schedule: Q01DX001 (ip), vehicle: carboxymethylcellulose (CMC)

Question: What does the source list for NCCCCCCN=C(N)C(N)=NCCCCCCN?
Answer: T/C (dose: 1.5 mg/kg/injection, schedule: Q01DX009 (ip), vehicle: Klucel (hydroxypropylcellulose) (HPC)): 96 % of control; T/C (dose: 3.0 mg/kg/injection, schedule: Q01DX009 (ip), vehicle: Klucel (hydroxypropylcellulose) (HPC)): 112 % of control; T/C (dose: 6.0 mg/kg/injection, schedule: Q01DX009 (ip), vehicle: Klucel (hydroxypropylcellulose) (HPC)): 102 % of control; T/C [1]: 93 % of control; T/C (dose: 25.0 mg/kg/injection, schedule: Q04DX003 (ip), vehicle: Klucel (hydroxypropylcellulose) (HPC)): 93 % of control

Question: How did the T/C (dose: 25.0 mg/kg/injection, schedule: Q04DX002 (ip), vehicle: Klucel (hydroxypropylcellulose) (HPC)) turn out when Cc1nnc(/N=C/c2ccccc2)n1/N=C/c1ccccc1 was run?
Answer: 90 % of control

Question: And the T/C (dose: 50.0 mg/kg/injection, schedule: Q04DX002 (ip), vehicle: Klucel (hydroxypropylcellulose) (HPC))?
Answer: 90 % of control

Question: And the T/C (dose: 100.0 mg/kg/injection, schedule: Q04DX002 (ip), vehicle: Klucel (hydroxypropylcellulose) (HPC))?
Answer: 96 % of control

Question: For O=C1C(N2CC2)=C(N2CCCC(O)C2)C(=O)C(N2CC2)=C1N1CCCC(O)C1 (stereo unspecified), which T/C (dose: 0.12 mg/kg/injection, schedule: Q04DX003 (ip), vehicle: saline) is on record?
Answer: 103 % of control

Question: What about the T/C (dose: 0.25 mg/kg/injection, schedule: Q04DX003 (ip), vehicle: saline) of the same molecule?
Answer: 111 % of control

Question: And the T/C (dose: 0.37 mg/kg/injection, schedule: Q01DX001 (ip), vehicle: saline)?
Answer: 98 % of control

Question: What about the T/C (dose: 0.37 mg/kg/injection, schedule: Q01DX009 (ip), vehicle: saline) of the same molecule?
Answer: 102 % of control and 103 % of control

Question: What about the T/C (dose: 0.5 mg/kg/injection, schedule: Q04DX003 (ip), vehicle: saline) of the same molecule?
Answer: 123 % of control

Question: What about the T/C (dose: 0.75 mg/kg/injection, schedule: Q01DX001 (ip), vehicle: saline) of the same molecule?
Answer: 108 % of control

Question: What about the T/C (dose: 0.75 mg/kg/injection, schedule: Q01DX009 (ip), vehicle: saline) of the same molecule?
Answer: 96 % of control

Question: What about the T/C (dose: 1.5 mg/kg/injection, schedule: Q01DX001 (ip), vehicle: saline) of the same molecule?
Answer: 105 % of control

Question: What about the T/C (dose: 1.5 mg/kg/injection, schedule: Q01DX009 (ip), vehicle: saline) of the same molecule?
Answer: 124 % of control

Question: And the T/C (dose: 2.0 mg/kg/injection, schedule: Q04DX003 (ip), vehicle: saline)?
Answer: 168 % of control

Question: What about the T/C (dose: 3.0 mg/kg/injection, schedule: Q01DX001 (ip), vehicle: saline) of the same molecule?
Answer: 102 % of control

Question: And the T/C (dose: 3.0 mg/kg/injection, schedule: Q01DX009 (ip), vehicle: saline)?
Answer: 159 % of control

Question: What about the T/C (dose: 4.0 mg/kg/injection, schedule: Q04DX003 (ip), vehicle: saline) of the same molecule?
Answer: 156 % of control and 184 % of control

Question: What about the T/C (dose: 6.0 mg/kg/injection, schedule: Q04DX003 (ip), vehicle: saline) of the same molecule?
Answer: 204 % of control

Question: O=C(Nc1cccc(Cl)c1)C1CCCC1=Nc1cccc(Cl)c1 (stereo unspecified) was tested. Which T/C [2] did it give?
Answer: 103 % of control

Question: And the T/C [3]?
Answer: 100 % of control

Question: What about the T/C [4] of the same molecule?
Answer: 103 % of control

Question: What about the T/C [5] of the same molecule?
Answer: 94 % of control

Question: CCOC(=O)CCN(Cc1ccccc1)C(COC)C(=O)OCC (stereo unspecified) was tested. Which T/C [3] did it give?
Answer: 97 % of control

Question: And the T/C [4]?
Answer: 90 % of control

Question: What about the T/C [5] of the same molecule?
Answer: 101 % of control

Question: CC(C)(O)C1(O)CCCC1 was tested. Which T/C [2] did it give?
Answer: 95 % of control

Question: What about the T/C [3] of the same molecule?
Answer: 93 % of control

Question: What about the T/C [4] of the same molecule?
Answer: 101 % of control

Question: What about the T/C [5] of the same molecule?
Answer: 93 % of control

Question: How did the T/C [6] turn out when COc1ccc([N+](=O)[O-])cc1NC(=O)Nc1c(C)n(C)n(-c2ccccc2)c1=O was run?
Answer: 108 % of control

Question: What about the T/C (dose: 100.0 mg/kg/injection, schedule: Q01DX009 (ip), vehicle: Klucel (hydroxypropylcellulose) (HPC)) of the same molecule?
Answer: 105 % of control

Question: What about the T/C (dose: 200.0 mg/kg/injection, schedule: Q01DX009 (ip), vehicle: Klucel (hydroxypropylcellulose) (HPC)) of the same molecule?
Answer: 97 % of control

Question: O=[N+]([O-])c1cccc2cn[nH]c12 was tested. Which T/C (dose: 25.0 mg/kg/injection, schedule: Q04DX002 (ip), vehicle: saline with Tween-80) did it give?
Answer: 100 % of control

Question: And the T/C (dose: 50.0 mg/kg/injection, schedule: Q04DX002 (ip), vehicle: saline with Tween-80)?
Answer: 110 % of control

Question: And the T/C (dose: 100.0 mg/kg/injection, schedule: Q04DX002 (ip), vehicle: saline with Tween-80)?
Answer: 107 % of control and 89 % of control

Question: For COc1ccccc1CN1CCCN(Cc2ccccc2OC)C1c1ccc(N(CCCl)CCCl)cc1Cl, which T/C [7] is on record?
Answer: 95 % of control

Question: And the T/C [8]?
Answer: 101 % of control

Question: What about the T/C [9] of the same molecule?
Answer: 98 % of control

Question: And the T/C [10]?
Answer: 95 % of control

Question: Which T/C [3] does the source give for CN1CCN(C(=O)c2ccccc2C(=O)O)CC1 here?
Answer: 101 % of control

Question: And the T/C [4]?
Answer: 96 % of control

Question: O=[N+]([O-])c1cccc2c(Br)cccc12 was tested. Which T/C (dose: 100.0 mg/kg/injection, schedule: Q01DX009 (ip), vehicle: saline) did it give?
Answer: 106 % of control

Question: What about the T/C (dose: 100.0 mg/kg/injection, schedule: Q04DX003 (ip), vehicle: saline) of the same molecule?
Answer: 103 % of control

Question: What about the T/C (dose: 200.0 mg/kg/injection, schedule: Q01DX009 (ip), vehicle: saline) of the same molecule?
Answer: 95 % of control

Question: And the T/C (dose: 200.0 mg/kg/injection, schedule: Q04DX003 (ip), vehicle: saline)?
Answer: 100 % of control

Question: What about the T/C (dose: 400.0 mg/kg/injection, schedule: Q01DX009 (ip), vehicle: saline) of the same molecule?
Answer: 95 % of control

Question: What about the T/C (dose: 400.0 mg/kg/injection, schedule: Q04DX003 (ip), vehicle: saline) of the same molecule?
Answer: 106 % of control

Question: How did the T/C (dose: 12.5 mg/kg/injection, schedule: Q01DX009 (ip), vehicle: Klucel (hydroxypropylcellulose) (HPC)) turn out when CCOC(=O)NCC(CCN1CCCC1)(c1cccc2ccccc12)C(C)C (stereo unspecified) was run?
Answer: 104 % of control

Question: And the T/C [1]?
Answer: 87 % of control

Question: What about the T/C (dose: 25.0 mg/kg/injection, schedule: Q01DX009 (ip), vehicle: Klucel (hydroxypropylcellulose) (HPC)) of the same molecule?
Answer: 102 % of control

Question: What about the T/C [6] of the same molecule?
Answer: 101 % of control

Question: And the T/C (dose: 50.0 mg/kg/injection, schedule: Q04DX003 (ip), vehicle: Klucel (hydroxypropylcellulose) (HPC))?
Answer: 95 % of control

Question: What does the source list for CC(C)NC(=O)C1C2C=CC(C2)C1C(=O)NC(C)C (stereo unspecified)?
Answer: T/C (dose: 100.0 mg/kg/injection, schedule: Q04DX003 (ip), vehicle: saline with Tween-80): 100 % of control; T/C (dose: 200.0 mg/kg/injection, schedule: Q04DX003 (ip), vehicle: saline with Tween-80): 100 % of control; T/C (dose: 400.0 mg/kg/injection, schedule: Q04DX003 (ip), vehicle: saline with Tween-80): 91 % of control

Question: Which T/C (dose: 26.0 mg/kg/injection, schedule: Q03HX032 (ip), vehicle: saline with Tween-80) does the source give for NC(=S)N/N=C/c1nc2ccccc2[nH]c1=O here?
Answer: 90 % of control and 91 % of control

Question: What about the T/C (dose: 40.0 mg/kg/injection, schedule: Q03HX032 (ip), vehicle: saline with Tween-80) of the same molecule?
Answer: 95 % of control and 87 % of control

Question: What about the T/C (dose: 60.0 mg/kg/injection, schedule: Q03HX032 (ip), vehicle: saline with Tween-80) of the same molecule?
Answer: 88 % of control and 90 % of control

Question: And the T/C (dose: 90.0 mg/kg/injection, schedule: Q03HX032 (ip), vehicle: saline with Tween-80)?
Answer: 94 % of control and 89 % of control

Question: What about the T/C (dose: 135.0 mg/kg/injection, schedule: Q03HX032 (ip), vehicle: saline with Tween-80) of the same molecule?
Answer: 89 % of control

Question: CS(=O)c1ccc2c(c1)-c1ccccc1C2=O (stereo unspecified) was tested. Which T/C [7] did it give?
Answer: 95 % of control

Question: And the T/C [8]?
Answer: 101 % of control

Question: What about the T/C [9] of the same molecule?
Answer: 95 % of control

Question: And the T/C [10]?
Answer: 101 % of control

Question: How did the T/C (dose: 100.0 mg/kg/injection, schedule: Q04DX003 (ip), vehicle: Klucel (hydroxypropylcellulose) (HPC)) turn out when Cc1ccc(Cc2cc(=O)[nH]c(=S)[nH]2)cc1 was run?
Answer: 98 % of control

Question: And the T/C (dose: 200.0 mg/kg/injection, schedule: Q04DX003 (ip), vehicle: Klucel (hydroxypropylcellulose) (HPC))?
Answer: 93 % of control

Question: And the T/C (dose: 400.0 mg/kg/injection, schedule: Q04DX003 (ip), vehicle: Klucel (hydroxypropylcellulose) (HPC))?
Answer: 92 % of control
